This note sets out measurements from US5324648A, “Substituted isocoumarins as serine protease inhibitors and anti-inflammatory agents” (Georgia Tech Research Corporation, priority 1992, dated 1994).

One assay deals with T1, bovine thrombin (Bos taurus, UniProt P00735).
T1 construct: bovine thrombin
Put plainly: Inactivation rate of bovine thrombin. Format: biochemical. The following applies: Table VIII; pH 7.5, 25° C; [I] 1.2-54 μM; read-out: kobs/[I]. In a few lines: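 Incubation method: isocoumarin in Me2SO added to enzyme (0.01-2.3 μM) in 0.1M Hepes, 0.01M CaCl2, pH 7.5, 8-12% Me2SO, 25° C. Residual activity sampled over time with peptide thioester (4,4'-dithiodipyridine) or 4-nitroanilide (410 nm) substrates. kobs taken from ln(vt/vo) vs time.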

A further assay deals with T2, human factor Xa (Homo sapiens, UniProt P00742).
T2 construct: human factor Xa
T2 sequence (P00742 235-488 limits assumed): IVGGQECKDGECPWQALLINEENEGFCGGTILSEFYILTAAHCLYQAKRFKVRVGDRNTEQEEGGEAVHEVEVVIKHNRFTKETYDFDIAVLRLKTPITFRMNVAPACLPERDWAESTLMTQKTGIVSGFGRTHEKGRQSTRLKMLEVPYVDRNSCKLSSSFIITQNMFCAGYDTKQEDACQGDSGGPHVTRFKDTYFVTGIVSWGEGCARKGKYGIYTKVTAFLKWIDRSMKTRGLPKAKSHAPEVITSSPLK
T2 sequence (P00742 41-179 partner limits assumed): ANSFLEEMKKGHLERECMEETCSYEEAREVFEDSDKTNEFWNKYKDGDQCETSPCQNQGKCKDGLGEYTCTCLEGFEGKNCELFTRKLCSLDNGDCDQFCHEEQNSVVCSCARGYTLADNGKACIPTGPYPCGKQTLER
Kind of assay: Inactivation rate of human factor Xa. Format: biochemical. As to conditions: Table VIII; pH 7.5, 25° C; [I] 3.6-44 μM; read-out: kobs/[I]. As for the experimental part: (§1) Inactivation rates of serine proteases by substituted isocoumarins were measured by the incubation method. An aliquot of inhibitor (25 or 50 μl) in Me2 SO was added to a buffered enzyme solution (0.01-2.3 μM) to initiate the inactivation. Aliquots (50 μl) were withdrawn at various intervals and the residual enzymatic activity was measured. Me2 SO concentration in the reaction mixture was 8-12% (v/v). 0.1 Hepes, 0.01M CaCl2, pH 7.5 buffer was utilized for trypsin and coagulation enzymes. 0.1M Hepes, 0.5M NaCl, pH 7.5 was utilized for other serine proteases. The inhibitor concentrations are shown in all the tables. Peptide thioesters or peptide nitroanilides with appropriate sequence were used as substrates for various serine proteases. All peptide thioester hydrolysis rates were measured with assay mixtures containing 4,4'-dithiodipyridine (ε324 =19800M^-1 cm^-1; Grasetti & Murray, Arch. Biochem. Biophys. 119, pp 41-49 (1967)). Peptide 4-nitroanilide nitroanilide hydrolysis was measured at 410 nm (ε410 =8800M^-1 cm^-1; Erlanger et al., Arch. Biochem. Biophys. 95, pp 271-278 (1961)). First order inactivation rate constant (kobs) were obtained from plots of ln (vt /vo) vs time, and the correlation coefficients were greater than 0.98.
(§2) ^a Conditions were as 0.1M Hepes, 0.01M CaCl2, pH 7.5 and 8-12%
(§3) Me2 SO and 25° C. Rate constants were measured by incubation
(§4) method unless otherwise noted. An aliquot of inhibitor was added to an
(§5) enzyme solution and aliquots removed with time and assayed for remaining
(§6) enzymatic activity. Firstorder rate constants, kobs were obtained
(§7) from the plots of ln(vt /vo) versus time.
(§8) ^a Inhibition rates were measured in 0.1M Hepes, 0.01M CaCl2, pH
(§9) 7.5 buffer, 8% Me2 SO and at 25° C.

In the next assay the target is T3, human factor XIa (Homo sapiens, UniProt P03951).
T3 construct: human factor XIa
T3 sequence (P03951 388-625 limits assumed): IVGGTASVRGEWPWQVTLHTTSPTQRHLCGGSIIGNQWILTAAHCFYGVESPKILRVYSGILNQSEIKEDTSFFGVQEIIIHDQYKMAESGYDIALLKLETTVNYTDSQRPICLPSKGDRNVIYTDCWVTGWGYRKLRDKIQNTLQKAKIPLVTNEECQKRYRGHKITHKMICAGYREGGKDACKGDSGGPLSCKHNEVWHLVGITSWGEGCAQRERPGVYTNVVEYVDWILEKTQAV
T3 sequence (P03951 19-387 partner limits assumed): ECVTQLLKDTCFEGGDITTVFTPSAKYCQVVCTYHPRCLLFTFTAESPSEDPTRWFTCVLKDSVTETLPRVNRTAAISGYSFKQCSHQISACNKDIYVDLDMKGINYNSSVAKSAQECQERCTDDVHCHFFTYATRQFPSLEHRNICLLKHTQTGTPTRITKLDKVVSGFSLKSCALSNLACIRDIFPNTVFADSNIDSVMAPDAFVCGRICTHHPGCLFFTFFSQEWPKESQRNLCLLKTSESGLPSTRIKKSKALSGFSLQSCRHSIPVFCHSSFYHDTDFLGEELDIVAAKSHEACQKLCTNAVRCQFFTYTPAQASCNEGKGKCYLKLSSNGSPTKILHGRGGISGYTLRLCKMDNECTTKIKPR
Put plainly: Inactivation rate of human factor XIa. Format: biochemical. As to conditions: Table VIII; pH 7.5, 25° C; [I] 0.7-0.8 μM; read-out: kobs/[I]. Here is the method: as §1, §2, §3, §4, §5, §6, §7, §8, §9

The next assay has as its target T4, human factor XIIa (Homo sapiens, UniProt P00748).
T4 construct: human factor XIIa
T4 sequence (P00748 373-615 limits assumed): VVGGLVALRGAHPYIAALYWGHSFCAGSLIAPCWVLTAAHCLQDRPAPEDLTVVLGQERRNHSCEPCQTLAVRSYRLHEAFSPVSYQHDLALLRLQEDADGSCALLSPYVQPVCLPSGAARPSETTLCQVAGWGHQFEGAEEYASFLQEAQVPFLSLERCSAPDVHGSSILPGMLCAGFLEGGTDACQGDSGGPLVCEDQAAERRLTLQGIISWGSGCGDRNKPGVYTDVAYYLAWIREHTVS
T4 sequence (P00748 20-372 partner limits assumed): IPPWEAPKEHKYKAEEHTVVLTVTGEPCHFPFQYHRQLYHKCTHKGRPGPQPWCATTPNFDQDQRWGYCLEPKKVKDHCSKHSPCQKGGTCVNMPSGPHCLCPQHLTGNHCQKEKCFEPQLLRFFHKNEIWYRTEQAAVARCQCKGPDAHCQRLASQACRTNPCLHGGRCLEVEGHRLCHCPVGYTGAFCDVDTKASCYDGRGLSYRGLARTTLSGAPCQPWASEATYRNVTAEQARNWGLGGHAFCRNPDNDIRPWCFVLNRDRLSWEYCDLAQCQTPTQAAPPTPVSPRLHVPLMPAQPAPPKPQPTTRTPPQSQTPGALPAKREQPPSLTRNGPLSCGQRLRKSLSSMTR
Kind of assay: Inactivation rate of human factor XIIa. In kind it is biochemical. The following applies: Table VIII; pH 7.5, 25° C; [I] 3.6-4.9 μM; read-out: kobs/[I]. As for the experimental part: as §1, §2, §3, §4, §5, §6, §7, §8, §9

In another assay the target is T5, human thrombin (Homo sapiens, UniProt P00734).
T5 construct: human thrombin
Kind of assay: Inactivation rate of human thrombin. In kind it is biochemical. The following applies: Table VIII; pH 7.5, 25° C; [I] 1.2-54 μM; read-out: kobs/[I]. As for the experimental part:
as §1, §8, §9

In a further assay the target is human lung tryptase. Kind of assay: Inactivation rate of human lung tryptase. In kind it is biochemical. As to conditions: Table IX; pH 7.5, 25° C; [I] 0.42-0.47 μM. As for the experimental part: as §1
^a Inactivation rates were measured at 0.1M Hepes, 0.5M NaCl, pH 7.5
buffer, 8% Me2 SO and 25° C.
as §8
(§10) 7.5 buffer for human plasmin; 25 mM Phosphate, 0.5M NaCl, 1 mM EDTA, pH
(§11) 7.5 buffer for rat skin tryptase and 0.1M Hepes, 0.5M NaCl, pH 7.5 for
(§12) human lung tryptase, human skin tryptase and rt-PA. All enzymes were
(§13) assayed with ZArg-SBzl (0.07 mM) in the presence of 4,4dithiodipyridine
(§14) (0.33 mM). Reaction mixtures contained 8% Me2 SO and assays were […]

Another assay deals with T6, rat skin tryptase (Rattus norvegicus, UniProt P27435).
T6 construct: from tissue; host or cells: rat skin
T6 sequence (P27435 29-273): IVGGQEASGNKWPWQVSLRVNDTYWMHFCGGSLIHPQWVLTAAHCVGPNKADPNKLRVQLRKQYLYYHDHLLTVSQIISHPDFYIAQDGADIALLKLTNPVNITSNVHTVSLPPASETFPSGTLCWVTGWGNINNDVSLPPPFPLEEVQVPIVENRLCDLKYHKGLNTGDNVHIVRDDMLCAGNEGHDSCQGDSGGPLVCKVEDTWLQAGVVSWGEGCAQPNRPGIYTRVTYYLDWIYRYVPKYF
Kind of assay: Inactivation rate of rat skin tryptase. In kind it is biochemical. The following applies: pH 7.5, Table IX; pH 7.5, 25° C; [I] 0.42-0.51 μM; read-out: kobs/[I]. As for the experimental part:
as §1
^b Inactivation rates were measured at 25 mM phosphate, 0.5M NaCl, 1
mM EDTA, pH 7.5 buffer, 9% Me2 SO and 25° C.
as §8, §10, §11, §12, §13, §14

The target of assay [1] is recombinant human tissue plasminogen activator (Homo sapiens, UniProt P00750). Put plainly: Inactivation rate of recombinant human tissue plasminogen activator. In kind it is biochemical. The following applies: pH 7.5, Table IX; pH 7.5, 25° C; [I] 3.5-5.0 μM; read-out: kobs/[I]. As for the experimental part:
as §1
^a Inactivation constants were measured at 0.1M Hepes, 0.5M NaCl (or
as §8, §10, §11, §12, §13, §14

In assay [2] the test system is pig plasma. Put plainly: Prothrombin time (PT), pig plasma. The following applies: [I] 32 μM.
Assay [3] relates to pig plasma. Put plainly: Activated partial thromboplastin time (APTT), pig plasma. As to conditions: [I] 32 μM.
In assay [4] the target is T7, porcine pancreatic elastase (PPE) (Sus scrofa, UniProt P00772).
T7 construct: from tissue; host or cells: porcine pancreas (from the name)
T7 sequence (P00772 27-266): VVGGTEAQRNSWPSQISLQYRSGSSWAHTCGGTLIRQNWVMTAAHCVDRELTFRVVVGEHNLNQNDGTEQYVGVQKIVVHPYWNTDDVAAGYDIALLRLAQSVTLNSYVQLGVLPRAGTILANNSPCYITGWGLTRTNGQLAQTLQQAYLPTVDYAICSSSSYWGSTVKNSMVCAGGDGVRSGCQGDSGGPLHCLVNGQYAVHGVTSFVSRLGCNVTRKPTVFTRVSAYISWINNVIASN
Put plainly: Inactivation of porcine pancreatic elastase (PPE). Format: biochemical. As to conditions: Table X; after 20 min incubation.

Assay [5] has as its target T8, human leukocyte elastase (HLE) (Homo sapiens, UniProt P08246).
T8 construct: from tissue; host or cells: human leukocytes (from the name)
T8 sequence (P08246 30-267): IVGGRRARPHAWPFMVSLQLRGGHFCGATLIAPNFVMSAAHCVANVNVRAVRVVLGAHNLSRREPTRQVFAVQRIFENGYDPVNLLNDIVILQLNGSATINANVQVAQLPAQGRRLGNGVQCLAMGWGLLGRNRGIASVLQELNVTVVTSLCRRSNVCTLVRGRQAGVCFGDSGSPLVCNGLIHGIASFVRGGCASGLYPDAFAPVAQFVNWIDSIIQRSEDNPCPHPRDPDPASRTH
Kind of assay: Inactivation of human leukocyte elastase (HLE). In kind it is biochemical. As to conditions: Table X; for kinact/KI: pH 7.5, biphasic inhibition.

A further assay addresses chymotrypsin (Bos taurus, UniProt P00766). Put plainly: Inactivation of chymotrypsin. Format: biochemical, bovine. As to conditions: Table X; pH 7.5, 25° C; [I] 0.9-43 μM; read-out: kobs/[I].
Another assay addresses T9, cathepsin G (Homo sapiens, UniProt P08311).
T9 construct: from tissue; host or cells: human leukocytes
T9 sequence (P08311 21-255): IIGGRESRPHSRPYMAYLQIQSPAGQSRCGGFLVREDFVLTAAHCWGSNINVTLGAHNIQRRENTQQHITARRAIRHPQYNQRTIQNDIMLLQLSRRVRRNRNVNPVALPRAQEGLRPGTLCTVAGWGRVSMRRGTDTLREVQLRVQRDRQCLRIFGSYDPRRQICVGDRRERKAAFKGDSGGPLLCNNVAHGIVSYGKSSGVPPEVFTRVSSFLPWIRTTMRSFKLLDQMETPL
Kind of assay: Inactivation of cathepsin G. In kind it is biochemical. As to conditions: Table X; pH 7.5, 25° C; [I] 33-46 μM; read-out: kobs/[I].

A further assay has as its target T10, human plasmin (Homo sapiens, UniProt P00747).
T10 construct: human plasmin; from tissue; host or cells: human plasma
Kind of assay: Inactivation rate of human plasmin. Format: biochemical. The following applies: Table IX; 0.01M CaCl2, pH 7.5, 25° C; [I] 8.3-41 μM; read-out: kobs/[I].

Where two headings read alike, the source gives them in different places. Some results are limits rather than exact numbers.

Chain of recombinant human tissue plasminogen activator (P00750 36-562): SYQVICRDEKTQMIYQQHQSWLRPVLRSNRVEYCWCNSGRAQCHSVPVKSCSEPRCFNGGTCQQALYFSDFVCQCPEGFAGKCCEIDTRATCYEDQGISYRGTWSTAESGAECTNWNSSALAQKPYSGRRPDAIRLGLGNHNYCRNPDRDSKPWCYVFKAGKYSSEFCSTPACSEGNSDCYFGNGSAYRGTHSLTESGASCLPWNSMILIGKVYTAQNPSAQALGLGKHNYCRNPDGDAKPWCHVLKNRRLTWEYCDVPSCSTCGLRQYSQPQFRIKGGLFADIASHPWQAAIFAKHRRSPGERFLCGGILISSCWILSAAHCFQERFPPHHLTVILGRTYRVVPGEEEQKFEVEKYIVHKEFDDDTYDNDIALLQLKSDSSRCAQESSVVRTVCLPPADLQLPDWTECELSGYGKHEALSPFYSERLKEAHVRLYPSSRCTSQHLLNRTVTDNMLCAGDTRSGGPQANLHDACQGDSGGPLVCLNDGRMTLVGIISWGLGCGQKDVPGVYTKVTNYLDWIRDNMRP
T10 sequence (P00747 581-810 limits assumed): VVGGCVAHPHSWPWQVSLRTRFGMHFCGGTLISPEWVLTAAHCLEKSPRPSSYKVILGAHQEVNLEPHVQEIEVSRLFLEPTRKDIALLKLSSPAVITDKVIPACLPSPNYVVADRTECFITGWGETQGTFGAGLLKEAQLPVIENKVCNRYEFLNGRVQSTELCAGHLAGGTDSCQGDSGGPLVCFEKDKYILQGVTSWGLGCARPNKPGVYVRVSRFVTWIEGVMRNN
T10 sequence (P00747 97-580 partner limits assumed): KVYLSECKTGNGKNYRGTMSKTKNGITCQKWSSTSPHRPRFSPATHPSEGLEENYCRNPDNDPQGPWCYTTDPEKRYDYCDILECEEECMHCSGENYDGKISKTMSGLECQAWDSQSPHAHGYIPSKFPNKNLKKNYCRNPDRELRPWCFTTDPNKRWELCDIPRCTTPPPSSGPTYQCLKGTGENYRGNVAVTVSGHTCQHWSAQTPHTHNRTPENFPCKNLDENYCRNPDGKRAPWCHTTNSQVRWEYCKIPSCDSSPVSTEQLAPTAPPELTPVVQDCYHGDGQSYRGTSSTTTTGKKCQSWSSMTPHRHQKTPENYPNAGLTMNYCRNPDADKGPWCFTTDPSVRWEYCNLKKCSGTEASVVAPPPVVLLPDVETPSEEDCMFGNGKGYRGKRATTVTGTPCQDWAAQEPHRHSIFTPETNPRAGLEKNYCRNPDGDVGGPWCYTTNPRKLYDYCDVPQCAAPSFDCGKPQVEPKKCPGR

Take `N=C(N)SCCOc1oc(=O)c2cc(NC(=O)NCc3ccccc3)ccc2c1Cl` [PhCH2 NHCONH-CiTEtOIC, 7-(benzylcarbamoylamino)-4-chloro-3-(2-isothiureidoethoxy)isocoumarin]: the kinact/KI is 16800 M⁻¹ s⁻¹ on bovine thrombin; 2340 M⁻¹ s⁻¹ at human factor Xa; 105000 M⁻¹ s⁻¹ at human factor XIa; 45000 M⁻¹ s⁻¹ on human factor XIIa; 11700 M⁻¹ s⁻¹ at human thrombin; 200000 M⁻¹ s⁻¹ on rat skin tryptase. Also, the kinact/KI in assay [1] was determined as 19000 M⁻¹ s⁻¹. At human lung tryptase, the “kobs/[I]” value is 280,000 M^-1 s^-1. This molecule also registered a PT in the assay on pig plasma [2] of 31.1 s. The molecule further displayed an APTT with pig plasma [3] above 120 s.
Consider `C[C@@H](NC(=O)Nc1ccc2c(Cl)c(OCCSC(=N)N)oc(=O)c2c1)c1ccccc1` [R-C6 H5 (CH3)CHNHCONH-CiTEtOIC, 7-((R)-α-methylbenzylcarbamoylamino)-4-chloro-3-(2-isothiureidoethoxy)isocoumarin], for which the kinact/KI at bovine thrombin turned out to be 29500 M⁻¹ s⁻¹; at human thrombin, 12000 M⁻¹ s⁻¹; on chymotrypsin it was 360 M⁻¹ s⁻¹; at cathepsin G, 145 M⁻¹ s⁻¹. In addition, the percentage of inhibition is on record as 9% in assay [4] and 40% in [5] (after 5 min incubation). The same molecule returned a PT with pig plasma [2] of 26.2 s. Also, the APTT in the assay on pig plasma [3] was above 120 s.
For `C[C@H](NC(=O)Nc1ccc2c(Cl)c(OCCSC(=N)N)oc(=O)c2c1)c1ccccc1` [S-C6 H5 (CH3)CHNHCONH-CiTEtOIC, 7-((S)-α-methylbenzylcarbamoylamino)-4-chloro-3-(2-isothiureidoethoxy)isocoumarin], the kinact/KI on bovine thrombin was found to be 41300 M⁻¹ s⁻¹; on human thrombin, 21000 M⁻¹ s⁻¹; in assay [5] (read-out: kobs/[I] (biphasic, first value)), 5100 M⁻¹ s⁻¹; in assay [5] (read-out: kobs/[I] (biphasic, second value)), 360 M⁻¹ s⁻¹; on chymotrypsin it was 260 M⁻¹ s⁻¹; on cathepsin G, 35 M⁻¹ s⁻¹. Further, the kinact/KI on human plasmin stood at 27800 M⁻¹ s⁻¹. Moreover, the percentage of inhibition in assay [4] is reported as 21%. Further, in the assay with pig plasma [2], the PT is 30.0 s. The molecule further yielded an APTT in the assay on pig plasma [3] above 120 s.
